ChEMBL document CHEMBL1759967, “Structure-based design and biological profile of (E)-N-(4-Nitrobenzylidene)-2-naphthohydrazide, a novel small molecule inhibitor of IκB kinase-β” (Eur J Med Chem, 2011)
Activity calls are given as the source filed them. The calls are words filed in the database; no cut-off is given here.

Legend:
[1] = biological target: T1, Inhibitor of nuclear factor kappa-B kinase subunit beta (Homo sapiens) (UniProt O14920); conditions: Sf21, 30 uM
T1 sequence (whole entry): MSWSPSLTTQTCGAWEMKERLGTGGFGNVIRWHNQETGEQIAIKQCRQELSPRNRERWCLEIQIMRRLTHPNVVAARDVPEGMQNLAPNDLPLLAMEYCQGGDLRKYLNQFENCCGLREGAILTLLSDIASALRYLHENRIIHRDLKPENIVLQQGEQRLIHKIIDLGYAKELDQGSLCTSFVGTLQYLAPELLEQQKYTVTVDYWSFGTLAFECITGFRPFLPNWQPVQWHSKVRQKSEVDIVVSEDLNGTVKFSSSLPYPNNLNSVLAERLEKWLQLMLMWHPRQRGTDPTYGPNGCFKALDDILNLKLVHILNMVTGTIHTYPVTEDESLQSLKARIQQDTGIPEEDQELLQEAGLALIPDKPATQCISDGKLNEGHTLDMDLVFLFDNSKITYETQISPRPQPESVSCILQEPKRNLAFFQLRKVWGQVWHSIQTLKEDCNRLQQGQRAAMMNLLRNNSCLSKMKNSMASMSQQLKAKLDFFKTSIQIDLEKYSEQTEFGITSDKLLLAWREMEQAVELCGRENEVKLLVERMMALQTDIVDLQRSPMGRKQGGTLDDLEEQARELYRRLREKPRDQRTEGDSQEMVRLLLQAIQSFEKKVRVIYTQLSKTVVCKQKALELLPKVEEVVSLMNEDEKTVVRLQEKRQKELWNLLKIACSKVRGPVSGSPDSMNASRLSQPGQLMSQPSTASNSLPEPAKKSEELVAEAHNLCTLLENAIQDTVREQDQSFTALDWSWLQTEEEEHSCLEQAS
Description: Inhibition of human recombinant IKK-beta expressed in insect Sf21 cells using phospho-Ulight-IkappaB-alpha as substrate at 30 uM

[2] = biological target: Serine/threonine-protein kinase Chk2 (Homo sapiens) (UniProt O96017); experiment: Inhibition of human CHK2 kinase expressed in insect Sf21 cells using phospho-CREBtide as substrate at 30 uM
[3] = biological target: T2, Inhibitor of nuclear factor kappa-B kinase subunit alpha (Homo sapiens) (UniProt O15111); conditions: Sf21, 30 uM
T2 sequence (whole entry): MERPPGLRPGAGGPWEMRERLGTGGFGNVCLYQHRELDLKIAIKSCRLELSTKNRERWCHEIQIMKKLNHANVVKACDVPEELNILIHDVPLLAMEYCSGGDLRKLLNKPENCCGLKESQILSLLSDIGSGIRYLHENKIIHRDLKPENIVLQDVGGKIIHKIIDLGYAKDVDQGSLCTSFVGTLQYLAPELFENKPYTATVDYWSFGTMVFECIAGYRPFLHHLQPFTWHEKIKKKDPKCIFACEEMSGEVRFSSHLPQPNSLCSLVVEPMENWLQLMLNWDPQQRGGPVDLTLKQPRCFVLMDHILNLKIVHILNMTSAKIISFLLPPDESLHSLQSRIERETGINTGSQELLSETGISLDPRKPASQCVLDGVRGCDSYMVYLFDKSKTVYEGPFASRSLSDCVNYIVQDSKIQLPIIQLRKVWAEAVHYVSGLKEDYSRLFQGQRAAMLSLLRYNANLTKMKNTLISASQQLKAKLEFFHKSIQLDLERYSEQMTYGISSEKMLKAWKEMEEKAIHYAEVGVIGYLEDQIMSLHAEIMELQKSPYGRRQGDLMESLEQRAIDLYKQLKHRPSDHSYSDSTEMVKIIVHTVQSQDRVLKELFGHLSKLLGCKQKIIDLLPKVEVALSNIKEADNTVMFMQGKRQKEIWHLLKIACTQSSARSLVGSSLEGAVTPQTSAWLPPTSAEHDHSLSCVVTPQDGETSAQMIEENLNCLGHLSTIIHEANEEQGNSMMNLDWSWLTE
Description: Inhibition of human recombinant IKK-alpha expressed in insect Sf21 cells using phospho-Ulight-IkappaB-alpha as substrate at 30 uM

Mus musculus [4] = species on record: Mus musculus; conditions: Swiss, Ear, at 10 µmol/kg
[5] = biological target: T3, Inhibitor of nuclear factor kappa-B kinase subunit beta (Homo sapiens, UniProt O14920); experiment: Inhibition of human recombinant IKK-beta expressed in insect Sf21 cells using phospho-Ulight-IkappaB-alpha as substrate
T3 sequence (O14920 whole entry): T1 sequence (whole entry)

Mus musculus [6] = experiment: Antiinflammatory activity in Swiss mouse assessed as inhibition of arachidonic acid-induced ear edema at 10 to 100 umol/kg, ip administered 60 mins before arachidonic acid challenge measured after 1 to 6 hrs by electronic digital caliper; type: functional, organism-based

Serine/threonine-protein kinase Chk2 (Homo sapiens), sequence (O96017 whole entry): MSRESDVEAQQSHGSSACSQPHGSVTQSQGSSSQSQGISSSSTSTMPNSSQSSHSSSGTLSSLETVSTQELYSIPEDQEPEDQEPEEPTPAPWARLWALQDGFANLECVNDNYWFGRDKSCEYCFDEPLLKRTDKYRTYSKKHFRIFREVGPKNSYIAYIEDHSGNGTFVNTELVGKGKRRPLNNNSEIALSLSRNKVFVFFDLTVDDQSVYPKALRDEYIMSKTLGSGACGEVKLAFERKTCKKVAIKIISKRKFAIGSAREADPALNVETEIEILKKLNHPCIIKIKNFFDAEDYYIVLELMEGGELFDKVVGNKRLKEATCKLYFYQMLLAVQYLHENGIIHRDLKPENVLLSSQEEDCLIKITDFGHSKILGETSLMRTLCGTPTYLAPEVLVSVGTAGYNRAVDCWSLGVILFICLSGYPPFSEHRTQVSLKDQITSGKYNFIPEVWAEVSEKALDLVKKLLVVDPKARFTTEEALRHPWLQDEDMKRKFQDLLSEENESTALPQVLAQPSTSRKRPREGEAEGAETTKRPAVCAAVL

SMILES | inhibition [1] | inhibition [2] | inhibition [3] | inhibition (Mus musculus [4]) | IC50 [5] | inhibition (Mus musculus [6])
COC(=O)c1ccc(/C=N/NC(=O)c2ccc3ccccc3c2)cc1 | 0% | 0% | 0% | – | – | –
O=C(N/N=C/c1ccc([N+](=O)[O-])cc1)c1ccc2ccccc2c1 | 1.2% | 0% | 0% | Active | 20 µM | Dose-dependent effect
O=C(O)c1ccc(/C=N/NC(=O)c2ccc3ccccc3c2)cc1 | 0% | 0% | 0% | – | – | –
NC(=O)c1sc(-c2ccsc2)cc1N | – | – | – | Active | – | –
